In publication PMC10006169, “A phase I trial of LXS196, a protein kinase C (PKC) inhibitor, for metastatic uveal melanoma” (British Journal of Cancer, 2023):
Where two headings read alike, the source gives them in different places.

Experiment: Plasma pharmacokinetics (LC-MS/MS)
Format: in vivo, human
Settings: human, plasma, oral; for Tmax: read-out: Tmax, Median (Min, max); for concentration at 15 day: read-out: Cmin, Median (Min, max)
Procedure: In the dose escalation part of the study, PK samples were collected at various pre- and post-dose time points on C1D1, D2, D3, D15 and D16. Drug concentrations were assessed using a validated liquid chromatography-tandem mass spectrometry assay.

For CC1(N)CCN(c2cccnc2NC(=O)c2nc(-c3ncccc3C(F)(F)F)cnc2N)CC1 [LXS196], the Tmax (100 mg, C1D1, 100 mg QD, n=3) was 1 h, the AUC(0-t) (100 mg, C1D15, 100 mg QD, n=2, read-out: AUC0-t, Geo-mean) was 10400 ng·h/mL and the AUC(0-t) (100 mg, C1D15, 100 mg QD, n=2, read-out: AUC0-t, Mean (SD)) was 10400 ng·h/mL. For the same compound, the AUC(0-t) (100 mg, C1D15, 100 mg QD, n=2, read-out: AUC0-t, Median (Min, max)) was 10400 ng·h/mL, the Cmax (100 mg, C1D15, 100 mg QD, n=3, read-out: Cmax, Geo-mean) was 1180 ng/mL and the Cmax (100 mg, C1D15, 100 mg QD, n=3, read-out: Cmax, Mean (SD)) was 1190 ng/mL. The Cmax (100 mg, C1D15, 100 mg QD, n=3, read-out: Cmax, Median (Min, max)) was 1260 ng/mL, the concentration at 15 day (100 mg, C1D15, 100 mg QD, n=3) was 112 ng/mL and the Tmax (100 mg, C1D15, 100 mg QD, n=3) was 1 h. The AUC(0-t) (200 mg, C1D1, 200 mg BID, n=6, read-out: AUC0-t, Geo-mean) was 15400 ng·h/mL, the AUC(0-t) (200 mg, C1D1, 200 mg BID, n=6, read-out: AUC0-t, Mean (SD)) was 18600 ng·h/mL and the AUC(0-t) (200 mg, C1D1, 200 mg BID, n=6, read-out: AUC0-t, Median (Min, max)) was 13300 ng·h/mL. The AUC(0-inf) (200 mg, C1D1, 200 mg BID, n=6, read-out: AUCinf, Geo-mean) was 24000 ng·h/mL, the AUC(0-inf) (200 mg, C1D1, 200 mg BID, n=6, read-out: AUCinf, Mean (SD)) was 29200 ng·h/mL and the AUC(0-inf) (200 mg, C1D1, 200 mg BID, n=6, read-out: AUCinf, Median (Min, max)) was 21600 ng·h/mL. For the same compound, the Cmax (200 mg, C1D1, 200 mg BID, n=6, read-out: Cmax, Geo-mean) was 3270 ng/mL, the Cmax (200 mg, C1D1, 200 mg BID, n=6, read-out: Cmax, Mean (SD)) was 4070 ng/mL and the Cmax (200 mg, C1D1, 200 mg BID, n=6, read-out: Cmax, Median (Min, max)) was 2950 ng/mL. It also gave a half-life (200 mg, C1D1, 200 mg BID, n=6, read-out: T1/2, Geo-mean (converted)) of 13 h, a half-life (200 mg, C1D1, 200 mg BID, n=6, read-out: T1/2, Mean (SD) (converted)) of 13.1 h and a half-life (200 mg, C1D1, 200 mg BID, n=6, read-out: T1/2, Median (Min, max) (converted)) of 13.1 h. For the same compound, the Tmax (200 mg, C1D1, 200 mg BID, n=6) was 0.525 h, the AUC(0-t) (200 mg, C1D1, 200 mg QD, n=3, read-out: AUC0-t, Geo-mean) was 18700 ng·h/mL and the AUC(0-t) (200 mg, C1D1, 200 mg QD, n=3, read-out: AUC0-t, Mean (SD)) was 19100 ng·h/mL. For the same compound, the AUC(0-t) (200 mg, C1D1, 200 mg QD, n=3, read-out: AUC0-t, Median (Min, max)) was 18900 ng·h/mL, the AUC(0-inf) (200 mg, C1D1, 200 mg QD, n=3, read-out: AUCinf, Geo-mean) was 21300 ng·h/mL and the AUC(0-inf) (200 mg, C1D1, 200 mg QD, n=3, read-out: AUCinf, Mean (SD)) was 21600 ng·h/mL. The AUC(0-inf) (200 mg, C1D1, 200 mg QD, n=3, read-out: AUCinf, Median (Min, max)) was 22600 ng·h/mL, the Cmax (200 mg, C1D1, 200 mg QD, n=3, read-out: Cmax, Geo-mean) was 3410 ng/mL and the Cmax (200 mg, C1D1, 200 mg QD, n=3, read-out: Cmax, Mean (SD)) was 3540 ng/mL. The Cmax (200 mg, C1D1, 200 mg QD, n=3, read-out: Cmax, Median (Min, max)) was 2860 ng/mL, the half-life (200 mg, C1D1, 200 mg QD, n=3, read-out: T1/2, Geo-mean (converted)) was 8.36 h and the half-life (200 mg, C1D1, 200 mg QD, n=3, read-out: T1/2, Mean (SD) (converted)) was 8.52 h. The half-life (200 mg, C1D1, 200 mg QD, n=3, read-out: T1/2, Median (Min, max) (converted)) was 8.44 h, the Tmax (200 mg, C1D1, 200 mg QD, n=3) was 1 h and the AUC(0-t) (200 mg, C1D15, 200 mg BID, n=5, read-out: AUC0-t, Geo-mean) was 15400 ng·h/mL. It also gave an AUC(0-t) (200 mg, C1D15, 200 mg BID, n=5, read-out: AUC0-t, Mean (SD)) of 16900 ng·h/mL, an AUC(0-t) (200 mg, C1D15, 200 mg BID, n=5, read-out: AUC0-t, Median (Min, max)) of 16000 ng·h/mL and a Cmax (200 mg, C1D15, 200 mg BID, n=5, read-out: Cmax, Geo-mean) of 2470 ng/mL. The Cmax (200 mg, C1D15, 200 mg BID, n=5, read-out: Cmax, Mean (SD)) was 2910 ng/mL, the Cmax (200 mg, C1D15, 200 mg BID, n=5, read-out: Cmax, Median (Min, max)) was 2540 ng/mL and the concentration at 15 day (200 mg, C1D15, 200 mg BID, n=5) was 883 ng/mL. For the same compound, the Tmax (200 mg, C1D15, 200 mg BID, n=5) was 1 h, the AUC(0-t) (200 mg, C1D15, 200 mg QD, n=3, read-out: AUC0-t, Geo-mean) was 12900 ng·h/mL and the AUC(0-t) (200 mg, C1D15, 200 mg QD, n=3, read-out: AUC0-t, Mean (SD)) was 13200 ng·h/mL. It also gave an AUC(0-t) (200 mg, C1D15, 200 mg QD, n=3, read-out: AUC0-t, Median (Min, max)) of 13800 ng·h/mL, a Cmax (200 mg, C1D15, 200 mg QD, n=3, read-out: Cmax, Geo-mean) of 2490 ng/mL and a Cmax (200 mg, C1D15, 200 mg QD, n=3, read-out: Cmax, Mean (SD)) of 2500 ng/mL. For the same compound, the Cmax (200 mg, C1D15, 200 mg QD, n=3, read-out: Cmax, Median (Min, max)) was 2620 ng/mL, the concentration at 15 day (200 mg, C1D15, 200 mg QD, n=3) was 149 ng/mL and the Tmax (200 mg, C1D15, 200 mg QD, n=3) was 1 h. The AUC(0-inf) (300 mg, C1D1, 300 mg BID, n=16, read-out: AUCinf, Geo-mean) was 30900 ng·h/mL, the AUC(0-inf) (300 mg, C1D1, 300 mg BID, n=16, read-out: AUCinf, Mean (SD)) was 35200 ng·h/mL and the AUC(0-inf) (300 mg, C1D1, 300 mg BID, n=16, read-out: AUCinf, Median (Min, max)) was 28400 ng·h/mL. The half-life (300 mg, C1D1, 300 mg BID, n=16, read-out: T1/2, Geo-mean (converted)) was 11.9 h, the half-life (300 mg, C1D1, 300 mg BID, n=16, read-out: T1/2, Mean (SD) (converted)) was 12.1 h and the half-life (300 mg, C1D1, 300 mg BID, n=16, read-out: T1/2, Median (Min, max) (converted)) was 11.8 h.
